Where two headings read alike, the source gives them in different places.
How the values were obtained:
α-glucosidase [1] = conditions: cited from earlier work
[2] = molecular target: T1, α-glucosidase enzyme (EC3.2.1.20) (Saccharomyces cerevisiae, UniProt P38158); assay: biochemical; format: biochemical
T1 construct: purchased Sigma-Aldrich
Protocol: α-glucosidase enzyme (EC3.2.1.20, Saccharomyces cerevisiae, 20 U/mg) and substrate (p-nitrophenyl glucopyranoside) were purchased from Sigma-Aldrich. α-glucosidase was dissolved in potassium phosphate buffer (50 mM, pH = 6.8) to obtain the initial activity of 1 U/ml. Then, 20 µl of this enzyme solution was added to 135 µl of potassium phosphate buffer and 20 µl of test compound at various concentrations in DMSO. After 10 min incubation at 37 °C, 25 µl of the substrate at a final concentration of 4 mM was added to the mixture and allowed to incubate at 37 °C for 20 min. Then, the change in absorbance was measured at 405 nm spectroscopically. […] The percentage of inhibition for each entry was calculated by using the following formula: \%Inhibition=Abs control-Abs sample/Abs control×100 IC50 values were obtained from the nonlinear regression curve using the Logit method[15],[29].

α-glucosidase [3] = molecular target: T2, α-glucosidase (Saccharomyces cerevisiae, UniProt P38158); assay: Enzyme kinetic studies (Lineweaver–Burk plot, secondary plot); format: biochemical
T2 construct: purchased Sigma-Aldrich
Protocol: A Lineweaver–Burk plot was generated to identify the type of inhibition and the Michaelis–Menten constant (Km) value was determined from the plot between the reciprocal of the substrate concentration (1/[S]) and reciprocal of enzyme rate (1/V) over various inhibitor concentrations.

[4] = parameters: method as in PMID 29980114; conditions: at the tested concentrations; cited from earlier work
[5] = previously reported inhibitors, Fig. 1, recent research
[6] = previously reported aryl-hydrazide inhibitors, Fig. 1, read-out: IC50

T1 sequence (P38158 whole entry): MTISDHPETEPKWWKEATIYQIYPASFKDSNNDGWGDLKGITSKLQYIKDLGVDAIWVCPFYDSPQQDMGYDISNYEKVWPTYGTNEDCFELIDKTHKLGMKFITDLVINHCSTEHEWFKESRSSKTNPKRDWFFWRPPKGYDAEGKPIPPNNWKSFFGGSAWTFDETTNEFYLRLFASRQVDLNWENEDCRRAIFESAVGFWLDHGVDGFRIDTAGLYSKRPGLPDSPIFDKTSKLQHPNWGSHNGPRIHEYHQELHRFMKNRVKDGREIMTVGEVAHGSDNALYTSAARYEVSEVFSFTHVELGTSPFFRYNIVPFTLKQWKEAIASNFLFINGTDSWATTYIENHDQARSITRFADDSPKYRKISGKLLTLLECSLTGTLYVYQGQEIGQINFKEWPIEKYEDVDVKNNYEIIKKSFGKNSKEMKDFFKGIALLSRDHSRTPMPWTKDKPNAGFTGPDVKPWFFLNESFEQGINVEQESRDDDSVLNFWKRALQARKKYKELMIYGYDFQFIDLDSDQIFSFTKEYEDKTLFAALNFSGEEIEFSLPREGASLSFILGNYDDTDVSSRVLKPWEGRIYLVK
T2 sequence (P38158 whole entry): as above

Row | SMILES | IC50 [2] | melting point | other results
1 | O=C(O)c1ccc2ccccc2n1 [A] |  |  | IC50 (α-glucosidase [1]; [5]): 9.1 ± 2.3 µg/mL
2 | O=C(O)c1cnc2ccccc2c1 [B] |  |  | IC50 (α-glucosidase [1]; [5]): 10.6 ± 1.4 µg/mL
3 | O=C(CSc1nc2ccccc2cc1-c1nc2ccccc2[nH]1)Nc1cccc(Cl)c1 [C] |  |  | IC50 (α-glucosidase [1]; previously reported inhibitor, Fig. 1, read-out: IC50): 3.2 ± 0.3 µM
4 | O=C(CSc1nc2ccccc2cc1C=NNC(=O)c1ccccc1)Nc1ccccc1 [Compound 9a, 2-((3-((2-Benzoylhydrazineylidene)methyl)quinolin-2-yl)thio)-N-phenylacetamide] | 88.5 ± 1.3 µM | 245 to 247 °C | improvement in inhibitory potency compared to the positive control ([2]; versus acarbose): approximately nine-fold
5 | O=C(CSc1nc2ccccc2cc1C=NNC(=O)c1ccccc1)Nc1ccccc1F [Compound 9b, 2-((3-((2-Benzoylhydrazineylidene)methyl)quinolin-2-yl)thio)-N-(2-fluorophenyl)acetamide] | 109.4 ± 0.2 µM | 268 to 270 °C | 
6 | O=C(CSc1nc2ccccc2cc1C=NNC(=O)c1ccccc1)Nc1ccc(F)cc1 [Compound 9c, 2-((3-((2-Benzoylhydrazineylidene)methyl)quinolin-2-yl)thio)-N-(4-fluorophenyl)acetamide] | 46 ± 0.5 µM | 271 to 273 °C | 
7 | O=C(CSc1nc2ccccc2cc1C=NNC(=O)c1ccccc1)Nc1cccc(Cl)c1 [Compound 9d, 2-((3-((2-Benzoylhydrazineylidene)methyl)quinolin-2-yl)thio)-N-(3-chlorophenyl)acetamide] | 193.8 ± 1 µM | 255 to 257 °C | 
8 | O=C(CSc1nc2ccccc2cc1C=NNC(=O)c1ccccc1)Nc1ccc(Cl)cc1 [Compound 9e, 2-((3-((2-Benzoylhydrazineylidene)methyl)quinolin-2-yl)thio)-N-(4-chlorophenyl)acetamide] | 234.9 ± 0.9 µM | 262 to 264 °C | 
9 | O=C(CSc1nc2ccccc2cc1C=NNC(=O)c1ccccc1)Nc1ccc(Br)cc1 [Compound 9f, 2-((3-((2-Benzoylhydrazineylidene)methyl)quinolin-2-yl)thio)-N-(4-bromophenyl)acetamide] | 352.4 ± 1.1 µM | 254 to 257 °C | 
10 | O=C(CSc1nc2ccccc2cc1C=NNC(=O)c1ccccc1)Nc1ccc([N+](=O)[O-])cc1 [Compound 9g, 2-((3-((2-benzoylhydrazineylidene)methyl)quinolin-2-yl)thio)-N-(4-nitrophenyl)acetamide] | 93.7 ± 1.5 µM | 241 to 243 °C | 
11 | Cc1ccccc1NC(=O)CSc1nc2ccccc2cc1C=NNC(=O)c1ccccc1 [Compound 9h, 2-((3-((2-Benzoylhydrazineylidene)methyl)quinolin-2-yl)thio)-N-(o-tolyl)acetamide] | 141.8 ± 0.6 µM | 260 to 263 °C | 
12 | Cc1ccc(NC(=O)CSc2nc3ccccc3cc2C=NNC(=O)c2ccccc2)cc1 [Compound 9i, 2-((3-((2-Benzoylhydrazineylidene)methyl)quinolin-2-yl)thio)-N-(p-tolyl)acetamide] | 305 ± 1.1 µM | 254 to 256 °C | 
13 | COc1ccc(NC(=O)CSc2nc3ccccc3cc2C=NNC(=O)c2ccccc2)cc1 [Compound 9j, 2-((3-((2-Benzoylhydrazineylidene)methyl)quinolin-2-yl)thio)-N-(4-methoxyphenyl)acetamide] | 24.7 ± 0.3 µM | 241 to 243 °C | 
14 | CCc1ccc(NC(=O)CSc2nc3ccccc3cc2C=NNC(=O)c2ccccc2)cc1 [Compound 9k, 2-((3-((2-Benzoylhydrazineylidene)methyl)quinolin-2-yl)thio)-N-(4-ethylphenyl)acetamide] | 60.4 ± 0.2 µM | 255 to 257 °C | 
15 | Cc1cccc(NC(=O)CSc2nc3ccccc3cc2C=NNC(=O)c2ccccc2)c1C [Compound 9l, 2-((3-((2-Benzoylhydrazineylidene)methyl)quinolin-2-yl)thio)-N-(2,3-dimethylphenyl)acetamide] | 37.99 ± 0.2 µM | 241 to 243 °C | 
16 | Cc1cccc(C)c1NC(=O)CSc1nc2ccccc2cc1/C=N/NC(=O)c1ccccc1 [Compound 9m, 2-((3-((2-Benzoylhydrazineylidene)methyl)quinolin-2-yl)thio)N(2,6dimethylphenyl)acetamide] |  |  | IC50 ([2]; α-glucosidase inhibition, mean ± SD, read-out: IC50): 14 ± 0.6 µM; mode of inhibition (α-glucosidase [3]; Lineweaver–Burk plot, Km increased, Vmax unchanged): competitive; Ki (α-glucosidase [3]; from plot of Km versus inhibitor concentration, read-out: Ki (inhibition constant)): 18 µM
17 | O=C(CSc1nc2ccccc2cc1C=NNC(=O)c1ccccc1)Nc1ccc2ccccc2c1 [Compound 9n, 2-((3-((2-Benzoylhydrazineylidene)methyl)quinolin-2-yl)thio)-N-(naphthalen-2-yl)acetamide] | 18.4 ± 0.4 µM | 263 to 265 °C | 
18 | O=C(CSc1nc2ccccc2cc1C=NNC(=O)c1ccccc1)NCc1ccccc1 [Compound 9o, 2-((3-((2-Benzoylhydrazineylidene)methyl)quinolin-2-yl)thio)-N-benzylacetamide] | 373.8 ± 0.8 µM | 241 to 243 °C | 
19 | O=C(CSc1nc2ccccc2cc1C=NNC(=O)c1ccccc1)NCc1ccc(F)cc1 [Compound 9p, 2-((3-((2-Benzoylhydrazineylidene)methyl)quinolin-2-yl)thio)-N-(4-fluorobenzyl)acetamide] | 78 ± 2.4 µM | 269 to 271 °C | 
20 | COc1ccc2nc3cc(Cl)ccc3c(SCC(=O)Nc3ccc(C)cc3)c2c1 [D] |  |  | IC50 (α-glucosidase [1]; previously reported inhibitor and its positive control, read-out: IC50): 80 ± 2 µM; toxicity [4]: no toxicity
21 | O=C(N/N=C/c1ccc(Cl)cc1)c1ccc(-c2nc3ccccc3s2)cc1 [E] |  |  | IC50 (α-glucosidase [1]; [6]): 83.8 ± 0.89 µM
22 | O=C(N/N=C/c1cccc(F)c1)c1ccc2nc(-c3ccccc3)c(-c3ccccc3)nc2c1 [F] |  |  | IC50 (α-glucosidase [1]; [6]): 111 ± 6 µM
